Data set [1] relates to Porcine Liver Esterase. Briefly: PLE hydrolysis experiment (enzymatic deprotection of POM-protected peptides). In kind it is in vitro ADME. Particulars: pig, 200 μM peptide, pH 7.4, 37° C. As to the method:
Hydrolysis assays were run on five POM-protected peptides (see below):
(§1) There are three types of hydrolysis experiment performed in these peptides.
Type 1: 200 μM peptide with Porcine Liver Esterase (58 units, according the protocol presented in Srivastva, D. N.; Farquhar, D. Bioorg. Chem. 1984, 12, 118).
PLE hydrolysis experiment. 0.05M potassium phosphate buffer (pH 7.4) was placed in centrifuge tube. A solution of selected peptide in methanol was added to the buffer. Final concentration of the peptide was 200 μM, MeOH was less than 1% in solution. Take 1 mL of the above solution, then added Pig liver esterase (57.6 units). The reaction mixture was then incubated at 37° C. by shaking. At different time point, certain amount (50 μL) of reaction mixture was taken and placed in a separate Eppendorf tube containing 1 equiv. volume MeCN (50 μL). After work-up, the hydrolysis product was monitored by LC-MS.

Data set [2] can be described thus: Culture medium hydrolysis experiment. In kind it is in vitro ADME. Particulars: for half-life at 1 μM: 1 μM peptide in culture medium. As to the method:
as §1
Type 2: 1 μM peptide in culture medium and 200 μM peptide in culture medium.
Culture medium hydrolysis experiment. Culture medium was placed in centrifuge tube. A solution of selected peptide in methanol was added to the culture medium. Final concentration of the peptide was 1 μM or 200 μM, MeOH was less than 1% in solution. The reaction mixture was then incubated at 37° C. by shaking. At different time point, certain amount (50 μL) of reaction mixture was taken and placed in a separate Eppendorf tube containing 1 equiv. volume MeCN (50 μL). After work-up, the hydrolysis product was monitored by LC-MS.

Data set [3] can be described thus: Cell lysate hydrolysis experiment. The note with it: 1 μM peptide in cell lysate, 37° C.; read-out: Half-life of peptides in cell lysate. In kind it is in vitro ADME. Here is the method: as §1
Type 3: 1 μM peptide in cell lysate.
Cell lysate hydrolysis experiment. Cell lysate was placed in 96-well plate. A solution of selected peptide in DMSO was added to the cell lysate. Final concentration of the peptide was 1 μM, DMSO was less than 1% in solution. The reaction mixture was then incubated at 37° C. by shaking. At different time point, 1 equiv. by volume of MeCN was added to well to quench the reaction. After work-up, the hydrolysis product was monitored by LC-MS.

The target in data set [4] is T1, Plk1 PBD (cellular lysates expressing HA-EGFP-Plk1) (Homo sapiens, UniProt P53350).
T1 construct: cell lysates containing full-length Plk1 were incubated with test peptides; expressed in transfected cells; host or cells: 293A cells infected with adenovirus expressing HA-EGFP-Plk1, arrested with nocodazole
Briefly: ELISA-based PBD-binding inhibition assay. Particulars: immobilized biotinylated p-T78 peptide, lysates with full-length Plk1. On the technique in general: An ELISA detects its analyte on a solid surface through an enzyme-linked reagent.
Experimental: An ELISA-based PBD-binding inhibition assay was carried out using an immobilized biotinylated 9-mer p-T78 peptide {Biotin-C—(CH2)6-(CH2)6-DPPLHSpTAI-NH2} and the cellular lysates expressing HA-EGFP-Plk1.
A biotinylated p-T78 peptide was first diluted with 1× coating solution (KPL Inc., Gaithersburg, Md.) to the final concentration of 0.3 μM, and then 100 μl of the resulting solution was immobilized onto a 96-well streptavidin-coated plate (Nalgene Nunc, Rochester, N.Y.). The wells were washed once with PBS plus 0.05% Tween20 (PBST), and incubated with 200 μl of PBS plus 1% BSA (blocking buffer) for 1 h to prevent non-specific binding. […] Following the incubation, ELISA plates were washed 4 times with PBST. To detect bound HA-EGFP-Plk1, the plates were probed for 2 h with 100 μl/well of anti-HA antibody at a concentration of 0.5 μg/ml in blocking buffer and then washed 5 times. The plates were further probed for 1 h with 100 μl/well of HRP-conjugated secondary antibody (GE Healthcare, Piscataway, N.J.) at a 1:1,000 dilution in blocking buffer. The plates were washed 5 times with PBST and incubated with 100 μl/well of 3,3′,5,5′-tetramethylbenzidine (TMB) solution (Sigma, St. Louis, Mo.) as a substrate until a desired absorbance was reached. […] The optical density (O.D.) was measured at 450 nm by using an ELISA plate reader (Molecular Devices, Sunnyvale, Calif.).

For data set [5], the system named is HeLa cells. In kind it is cell-based. As to the method: Cell culture, analysis of the cell proliferation and aberrant mitotic population, and indirect immunofluorescence microscopy: HeLa cervical carcinoma cell line CCL2, 293A and 293T cells were cultured as recommended by the American Type Culture Collection (Manassas, Va.), were cultured as recommended by American Type Culture Collection (Manassas, Va.). To prepare mitotic 293A cells expressing HA-EGFP-Plk1, cells were infected with adenovirus expressing HA-EGFP-Plk1 and arrested with 200 ng/ml of nocodazole for 16 h. To analyze the effect of the indicated compounds in cultured cells, logarithmically growing HeLa cells were treated with 200 μM of the indicated compounds for 24 h (a sufficient amount of time to enrich mitotically-arrested cells), treated with Hoechst 33342 for […], and then fixed with 4% paraformaldehyde.
Cell-based growth inhibition assays were performed.

The mark [6] stands for this setting: 37° C., read-out: Half-life of peptides in culture medium.

We go through four molecules from US10047122B2, “Peptide and peptide mimetic binding antagonists of polo-like kinase 1 polo box domain and methods of use” (The United States of America, as represented by the …, priority 2013, dated 2018).

Numbered stars: 1 amine (or outer) side, 2 acyl side, 3 side chain; on linkers, the order of the positions; unused ones are H or OH. Square brackets hold non-standard residues; d marks the D form. Peptide text beside a SMILES is read from it. X1 = C[C@@H](OP(=O)(OCOC(=O)C(C)(C)C)OCOC(=O)C(C)(C)C)[C@H](N[*:1])C(=O)[*:2]; X2 = C[C@@H](CP(=O)(OCOC(=O)C(C)(C)C)OCOC(=O)C(C)(C)C)[C@H](N[*:1])C(=O)[*:2]; His(π-(CH2)8Ph) = N[C@@H](Cc1cncn1CCCCCCCCc1ccccc1)C(=O)O

What is called half-life is how long it takes for the measured level to halve. A word on the IC50: it is the point on the concentration scale where inhibition reaches its midpoint.

T1 sequence (P53350 whole entry): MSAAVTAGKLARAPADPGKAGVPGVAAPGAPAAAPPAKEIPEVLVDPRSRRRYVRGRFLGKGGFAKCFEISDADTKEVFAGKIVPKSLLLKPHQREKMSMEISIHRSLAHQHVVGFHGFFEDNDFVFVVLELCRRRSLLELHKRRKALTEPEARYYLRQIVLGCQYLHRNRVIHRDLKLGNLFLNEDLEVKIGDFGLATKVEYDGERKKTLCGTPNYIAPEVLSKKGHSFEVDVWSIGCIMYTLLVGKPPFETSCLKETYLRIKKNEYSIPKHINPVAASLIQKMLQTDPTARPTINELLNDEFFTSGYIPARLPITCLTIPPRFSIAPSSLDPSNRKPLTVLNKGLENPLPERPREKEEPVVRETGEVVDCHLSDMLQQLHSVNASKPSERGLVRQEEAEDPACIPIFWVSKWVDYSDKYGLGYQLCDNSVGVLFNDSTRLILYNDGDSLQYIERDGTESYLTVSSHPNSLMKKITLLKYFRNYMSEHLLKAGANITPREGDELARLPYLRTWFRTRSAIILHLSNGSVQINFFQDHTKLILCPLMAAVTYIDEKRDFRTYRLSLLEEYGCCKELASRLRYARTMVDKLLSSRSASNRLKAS

As to `CC(=O)N1CCC[C@H]1C(=O)N[C@@H](CC(C)C)C(=O)N[C@@H](Cc1c[nH]cn1)C(=O)N[C@@H](CO)C(=O)N[C@H](C(N)=O)[C@@H](C)OP(=O)(OCOC(=O)C(C)(C)C)OCOC(=O)C(C)(C)C` [Compound A1, Ac-Pro-Leu-His-Ser-Thr(PO2POM2)-amide] (Ac-PLHS[X1]-NH2), the half-life at 200 μM in data set [1] came out at 0.113 h.

Consider `CC(=O)N1CCC[C@H]1C(=O)N[C@@H](CC(C)C)C(=O)N[C@@H](Cc1c[nH]cn1)C(=O)N[C@@H](CO)C(=O)N[C@H](C(N)=O)[C@@H](C)CP(=O)(OCOC(=O)C(C)(C)C)OCOC(=O)C(C)(C)C` [Compound A3] (Ac-PLHS[X2]-NH2), for which the half-life at 200 μM in data set [1] is 0.085 h.

As to `CC(=O)N1CCC[C@H]1C(=O)N[C@@H](CC(C)C)C(=O)N[C@@H](Cc1cncn1CCCCCCCCc1ccccc1)C(=O)N[C@@H](CO)C(=O)N[C@H](C(N)=O)[C@@H](C)OP(=O)(OCOC(=O)C(C)(C)C)OCOC(=O)C(C)(C)C` [Compound A5] (Ac-PL[His(π-(CH2)8Ph)]S[X1]-NH2), the half-life at 200 μM in data set [1] was found to be 1.9 h; in data set [2] (200 μM peptide in culture medium, 37° C., read-out: Half-life of peptides in culture medium), 7.43 h. The half-life at 1 μM in data set [2] (setting [6]) was 0.537 h; in data set [3] it was 2.32 h.

In data set [1], `CC(=O)N1CCC[C@H]1C(=O)N[C@@H](CC(C)C)C(=O)N[C@@H](Cc1c[n+](CCO)cn1CCCCCCCCc1ccccc1)C(=O)N[C@@H](CO)C(=O)N[C@H](C(N)=O)[C@@H](C)OP(=O)(O)OCOC(=O)C(C)(C)C` [Compound A10] yielded a half-life at 200 μM of 4 h. For the same molecule, the half-life at 1 μM stood at 6.87 h in data set [2] (setting [6]) and 1.48 h in data set [3]. The “hydrolysis product detected after 24 h incubation” value in data set [2] (200 μM peptide in culture medium, 24 h) is “^a<5% hydrolysis product could be detected after 24 h incubation”. The IC50 in data set [4] was found to be 0.0093 µM; in data set [5] it was 57 µM.
